Assay results published in patent publication US20230077362A1 (CORTEVA AGRISCIENCE LLC, priority 2019, published 2023).

Experiments:
[1] = test system: Beet Armyworm (Spodoptera exigua) ("BAW"), second instar larvae; assay: Bioassay on beet armyworm (BAW), 128-well diet tray assay; format: in vivo; conditions: Spodoptera exigua, read-out: BAW (Biological Results, rating)
Procedure, shortened: (§1)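 Each value represents average percent mortality from eight wells. Larvae were kept in clear-covered trays at 25° C. for five to seven days on a 14-hour light, 10-hour dark schedule before scoring.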

[2] = test system: Cabbage Looper (Trichoplusia ni) ("CL"), second instar larvae; assay: Bioassay on cabbage looper (CL), 128-well diet tray assay; format: in vivo; conditions: Trichoplusia ni, read-out: CL (Biological Results, rating)
Procedure, shortened: as §1

Structure (SMILES) | pest or weed control at 50 µg/cm2 [1] | pest or weed control at 50 µg/cm2 [2]
CN(C)c1ccc(C(F)(F)F)c(N2C(=O)CS/C2=N\C(=O)Nc2ccc(-c3ncn(-c4ccc(OC(F)(F)F)cn4)n3)cc2F)c1 [Compound J262, (Z)-1-(3-(5-(Dimethylamino)-2-(trifluoromethyl)phenyl)-4-oxothiazolidin-2-ylidene)-3-(2-fluoro-4-(1-(5-(trifluoromethoxy)pyridin-2-yl)-1H-1,2,4-triazol-3-yl)phenyl)urea] | 50 to 100% | 50 to 100%
CN(C)c1ccc(OCC(F)(F)F)c(N2C(=O)CS/C2=N\C(=O)Nc2ccc(-c3ncn(-c4ccc(OC(F)(F)F)cn4)n3)cc2F)c1 [Compound J263, (Z)-1-(3-(5-(Dimethylamino)-2-(2,2,2-trifluoroethoxy)phenyl)-4-oxothiazolidin-2-ylidene)-3-(2-fluoro-4-(1-(5-(trifluoromethoxy)pyridin-2-yl)-1H-1,2,4-triazol-3-yl)phenyl)urea] | 50 to 100% | 50 to 100%
Cc1ccc(OCCC(F)(F)F)c(N2C(=O)CS/C2=N\C(=O)Nc2ccc(-c3ncn(-c4ccc(OC(F)(F)F)cn4)n3)cc2C#N)c1 [Compound J264, (Z)-1-(2-Cyano-4-(1-(5-(trifluoromethoxy)pyridin-2-yl)-1H-1,2,4-triazol-3-yl)phenyl)-3-(3-(5-methyl-2-(3,3,3-trifluoropropoxy)phenyl)-4-oxothiazolidin-2-ylidene)urea] | 50 to 100% | 50 to 100%
Cc1ccc(COCC(F)(F)F)c(N2C(=O)CS/C2=N\C(=O)Nc2ccc(-c3ncn(-c4ccc(OC(F)(F)F)cn4)n3)cc2C#N)c1 [Compound J265, (Z)-1-(2-Cyano-4-(1-(5-(trifluoromethoxy)pyridin-2-yl)-1H-1,2,4-triazol-3-yl)phenyl)-3-(3-(5-methyl-2-((2,2,2-trifluoroethoxy)methyl)phenyl)-4-oxothiazolidin-2-ylidene)urea] | 50 to 100% | 50 to 100%
CC(C)c1ccc(N(C)C)cc1N1C(=O)CS/C1=N\C(=O)Nc1ccc(-c2ncn(-c3ccc(OC(F)(F)F)cn3)n2)cc1C#N [Compound J266, (Z)-1-(2-Cyano-4-(1-(5-(trifluoromethoxy)pyridin-2-yl)-1H-1,2,4-triazol-3-yl)phenyl)-3-(3-(5-(dimethylamino)-2-isopropylphenyl)-4-oxothiazolidin-2-ylidene)urea] | 50 to 100% | 50 to 100%
COC(C)c1ccc(C)cc1N1C(=O)CS/C1=N\C(=O)Nc1ccc(-c2ncn(-c3ccc(OC(F)(F)F)cn3)n2)cc1C#N (stereo not drawn) [Compound J267, (Z)-1-(2-Cyano-4-(1-(5-(trifluoromethoxy)pyridin-2-yl)-1H-1,2,4-triazol-3-yl)phenyl)-3-(3-(2-(1-methoxyethyl)-5-methylphenyl)-4-oxothiazolidin-2-ylidene)urea] | 50 to 100% | 50 to 100%
COc1ccc(C(C)C)c(N2C(=O)CS/C2=N\C(=O)Nc2ccc(-c3ncn(-c4ccc(OC(F)(F)F)cn4)n3)cc2C#N)c1 [Compound J268, (Z)-1-(2-Cyano-4-(1-(5-(trifluoromethoxy)pyridin-2-yl)-1H-1,2,4-triazol-3-yl)phenyl)-3-(3-(2-isopropyl-5-methoxyphenyl)-4-oxothiazolidin-2-ylidene)urea] | 50 to 100% | 50 to 100%
CCCc1ccc(N(C)C)cc1N1C(=O)CS/C1=N\C(=O)Nc1ccc(-c2ncn(-c3ccc(OC(F)(F)F)cn3)n2)cc1C#N [Compound J269, (Z)-1-(2-Cyano-4-(1-(5-(trifluoromethoxy)pyridin-2-yl)-1H-1,2,4-triazol-3-yl)phenyl)-3-(3-(5-(dimethylamino)-2-propylphenyl)-4-oxothiazolidin-2-ylidene)urea] | 50 to 100% | 50 to 100%
Cc1ccc(C(C)C)c(N2C(=O)CS/C2=N\C(=O)Nc2ccc(-c3ncn(-c4ccc(OC(F)(F)F)cn4)n3)cc2F)c1 [Compound J270, (Z)-1-(2-Fluoro-4-(1-(5-(trifluoromethoxy)pyridin-2-yl)-1H-1,2,4-triazol-3-yl)phenyl)-3-(3-(2-isopropyl-5-methylphenyl)-4-oxothiazolidin-2-ylidene)urea] | 50 to 100% | 50 to 100%
Cc1ccc(C(F)(F)F)c(N2C(=O)CS/C2=N\C(=O)Nc2ccc(-c3ncn(-c4ccc(OC(F)(F)F)cn4)n3)cc2F)c1 [Compound J271, (Z)-1-(2-Fluoro-4-(1-(5-(trifluoromethoxy)pyridin-2-yl)-1H-1,2,4-triazol-3-yl)phenyl)-3-(3-(5-methyl-2-(trifluoromethyl)phenyl)-4-oxothiazolidin-2-ylidene)urea] | 50 to 100% | 50 to 100%
CCCc1ccc(C)cc1N1C(=O)CS/C1=N\C(=O)Nc1ccc(-c2ncn(-c3ccc(OC(F)(F)F)cn3)n2)cc1F [Compound J272, (Z)-1-(2-Fluoro-4-(1-(5-(trifluoromethoxy)pyridin-2-yl)-1H-1,2,4-triazol-3-yl)phenyl)-3-(3-(5-methyl-2-propylphenyl)-4-oxothiazolidin-2-ylidene)urea] | 50 to 100% | 50 to 100%
Cc1ccc(OCCC(F)(F)F)c(N2C(=O)CS/C2=N\C(=O)Nc2ccc(-c3ncn(-c4ccc(OC(F)(F)F)cn4)n3)cc2C(F)(F)F)c1 [Compound J273, (Z)-1-(3-(5-Methyl-2-(3,3,3-trifluoropropoxy)phenyl)-4-oxothiazolidin-2-ylidene)-3-(4-(1-(5-(trifluoromethoxy)pyridin-2-yl)-1H-1,2,4-triazol-3-yl)-2-(trifluoromethyl)phenyl)urea] | 50 to 100% | 50 to 100%
Cc1ccc(COCC(F)(F)F)c(N2C(=O)CS/C2=N\C(=O)Nc2ccc(-c3ncn(-c4ccc(OC(F)(F)F)cn4)n3)cc2C(F)(F)F)c1 [Compound J274, (Z)-1-(3-(5-Methyl-2-((2,2,2-trifluoroethoxy)methyl)phenyl)-4-oxothiazolidin-2-ylidene)-3-(4-(1-(5-(trifluoromethoxy)pyridin-2-yl)-1H-1,2,4-triazol-3-yl)-2-(trifluoromethyl)phenyl)urea] | 50 to 100% | 50 to 100%
CC(C)c1ccc(N(C)C)cc1N1C(=O)CS/C1=N\C(=O)Nc1ccc(-c2ncn(-c3ccc(OC(F)(F)F)cn3)n2)cc1C(F)(F)F [Compound J275, (Z)-1-(3-(5-(Dimethylamino)-2-isopropylphenyl)-4-oxothiazolidin-2-ylidene)-3-(4-(1-(5-(trifluoromethoxy)pyridin-2-yl)-1H-1,2,4-triazol-3-yl)-2-(trifluoromethyl)phenyl)urea] | 50 to 100% | 50 to 100%
COC(C)c1ccc(C)cc1N1C(=O)CS/C1=N\C(=O)Nc1ccc(-c2ncn(-c3ccc(OC(F)(F)F)cn3)n2)cc1C(F)(F)F (stereo not drawn) [Compound J276, (Z)-1-(3-(2-(1-Methoxyethyl)-5-methylphenyl)-4-oxothiazolidin-2-ylidene)-3-(4-(1-(5-(trifluoromethoxy)pyridin-2-yl)-1H-1,2,4-triazol-3-yl)-2-(trifluoromethyl)phenyl)urea] | 50 to 100% | 50 to 100%
